# Test results published in patent US10059669B2, “2-amino-3,5-difluoro-3,6-dimethyl-6-phenyl-3,4,5,6-tetrahydropyridines as BACE1 inhibitors for treating alzheimer's disease” (H. Lundbeck A/S, priority 2014, dated 2018).
# Like-named read-outs stand apart in the source and are kept apart here.
# Assays:
# BACE1 = BACE1 (Homo sapiens (Human), UniProt P56817); experiment: BACE1 binding assay (SPA-based radioligand binding); settings: pH 4.5, 10 nM radioligand, Ki calculated from IC50
# Experimental: The binding assay was performed as SPA-based assay using a biotinylated form of human BACE1 recombinantly expressed and subsequently purified from Freestyle HEK293 cells. The binding assay was run in a 50 mM sodium acetate buffer, pH 4.5 containing 50 mM NaCl and 0.03% Tween-20 in white clear bottom 384 plates (Corning #3653). 10 nM (final concentration) radioligand ([^3H]—N-((1S,2R)-1-benzyl-3-cyclopropylamino-2-hydroxy-propyl)-5-(methanesulfonyl-methyl-amino)-N—((R)-1-phenyl-ethyl)-isophthalamide) (TRQ11569 purchased from GE Healthcare) was mixed with test compound at a given concentration, 6 nM (final concentration) human BACE1 and 25 μg Streptavidin coated PVT core SPA beads (RPNQ0007, GE Healthcare Life Sciences) in a total volume of 40 μl. Several concentrations of each test compound were tested in the assay for IC50 determination. The plates were incubated for one hour at room temperature and counted in a Wallac Trilux counter. Total and non-specific binding were determined using buffer and 1 μM (final concentration) of the high affinity BACE1 reference inhibitor (S)-6-[3-chloro-5-(5-prop-1-ynyl-pyridin-3-yl)-thiophen-2-yl]-2-imino-3,6-dimethyl-tetrahydro-pyrimidin-4-one, respectively. For each test compound, a IC50 value (the concentration mediating 50% inhibition of the specific binding of the radioligand) was determined from concentration-response curve and used to calculate the Ki from the equation Ki=IC50/(1+L/Kd), where L and Kd are the final concentration of the radioligand used in the assay and the dissociation constant of the radioligand, respectively. The Kd of the radioligand was determined from saturation binding experiments.
# [1] = Bioanalysis of brain and plasma samples (exposure, UPLC-MS/MS); assay type: in vivo, rat; settings: male, Sprague Dawley, po, 3 hours post dose; for Kp at 3 h: brain and plasma, Rat, read-out: Brain/Plasma ratio; for concentration at 3 h: read-out: Exp
# Experimental: Young adult Male Sprague Dawley rats of approximately 250 g weight were purchased from Charles River and received 0-30 mg/kg of vehicle (10% HP betaCD+1M MeSO4, pH 2.5) or test compounds (dissolved in vehicle) only by oral gavage (p.o). The compounds are dosed at a volume of 5 ml/kg. Cohorts of 5-10 animals were established for each treatment condition.
# At T=180 minutes after initial dosing the animals were stunned and decapitated with a guillotine. Trunk-blood was sampled in EDTA coated tubes after decapitation of the animal. The blood was centrifuged at 2200G at 4° C. for 15 minutes and the plasma was collected and frozen at −80° C. The blood was aliquoted for Aβ ELISA and DMPK analysis. Immediately following sacrifice, the brain was extracted and split into 2 halves. The right hemibrains were snap frozen on dry ice and stored at −80° C. The left half was dissected; with the front forebrain taken for Aβ ELISA and the remainder used for DMPK analysis. These samples were also snap frozen on dry ice and stored at −80° C. until use for analysis. […]
# TC was determined in plasma and brain homogenate using UltraPerformance LC® (UPLC®) chromatography followed by tandem-MS (MS/MS) detection.
# Brain homogenate was prepared by homogenizing the brain 1:4 (v/v) with water:2-propanol:DMSO (50:30:20 v/v/v) followed by centrifugation and collection of the supernatant. Calibration standards and QC samples were prepared using a Hamilton robot. 150 μL of ISTD in acetonitrile (1 ng/mL ISTD) was added to 25 μL of calibration standards, QC samples and test samples (plasma and brain homogenate) using a Biomek robot. After centrifugation (6200 g, 4° C., 20 min) 100 μL supernatant from each sample was transferred to a new plate and mixed with 100 μL water with 0.1% formic acid using a Biomek robot (method file InVivo transfer). After a quick centrifugation (6200 g, 4° C., 5 min) the samples were placed in the auto-sampler.
# MS/MS detection was done with an Applied Biosystems Sciex API 4000 instrument in positive-ion electrospray ionisation mode. TC and ISTD were detected at a parent>daughter mass to charge ratio (m/z). Nitrogen was used for the nebulizer and collision gases. The peak area correlated linearly with the plasma and brain concentration of the analytes in the range of 1.00-1000 ng/mL plasma and 5.00-5000 ng/g brain (corrected for dilution). If the plasma/brain sample drug concentration was above 1000 ng/mL or 5000 ng/g, the sample was diluted appropriately in blank plasma/blank brain homogenate before analysis.
# P-gp (MDR1) = experiment: MDCK-MDR1 assay (permeability, efflux ratio); assay type: in vitro ADME; settings: dog, Papp BA/Papp AB, 60-minute incubation, Pgp substrate when ≥2
# Experimental: The permeability of the test compounds was assessed in MDCK-MDR1 cells that were cultured to confluency (4-6 days) in a 96 transwell plate. Test compounds were diluted with the transport buffer (HBSS+1% BSA) to a concentration of 0.5 μM and applied to the apical or basolateral side of the cell monolayer. Permeation of the test compounds from A to B direction or B to A direction was determined in triplicate over a 60-minute incubation time at 37° C. and 5% CO2 with a relative humidity of 95%. Test compounds were quantified by LC-MS/MS analysis based on the peaks area ratios of analyte/IS in both the receiver and donor wells of the transwell plate.
# The apparent permeability coefficient Papp (cm/s) was calculated using the equation: Papp=(dCr/dt)×Vr/(A×C0)
# Where dCr/dt is the cumulative concentration of compound in the receiver chamber as a function of time (M/s); Vr is the solution volume in the receiver chamber (0.05 mL on the apical side; 0.25 mL on the basolateral side); A is the surface area for the transport, i.e. 0.0804 cm^2 for the area of the monolayer; C0 is the initial concentration in the donor chamber (VIM).
# Compounds are classified Pgp substrates when efflux ratio (Papp BA/Papp AB) is ≥2.
# Chain of BACE1 (P56817 46-501): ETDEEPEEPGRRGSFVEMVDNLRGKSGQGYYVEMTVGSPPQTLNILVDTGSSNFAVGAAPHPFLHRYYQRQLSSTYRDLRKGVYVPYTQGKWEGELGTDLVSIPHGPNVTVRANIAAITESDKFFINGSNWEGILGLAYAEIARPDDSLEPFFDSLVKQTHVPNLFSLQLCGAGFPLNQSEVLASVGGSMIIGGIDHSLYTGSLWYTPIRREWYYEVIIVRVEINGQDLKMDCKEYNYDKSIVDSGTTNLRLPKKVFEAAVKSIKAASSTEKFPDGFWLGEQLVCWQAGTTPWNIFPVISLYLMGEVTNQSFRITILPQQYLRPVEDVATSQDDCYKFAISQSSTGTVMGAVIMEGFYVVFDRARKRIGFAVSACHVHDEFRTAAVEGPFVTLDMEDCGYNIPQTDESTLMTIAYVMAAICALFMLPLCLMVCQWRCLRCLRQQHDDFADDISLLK
Structure (SMILES),Ki (BACE1) [nM],Kp at 3 h ([1]; 10 mg/kg p.o.),Kp at 3 h ([1]; 30 mg/kg p.o.),"concentration at 3 h ([1]; Brain Rat, 10 mg/kg p.o.) [ng/g]","concentration at 3 h ([1]; Brain Rat, 30 mg/kg p.o.) [ng/g]","concentration at 3 h ([1]; Plasma Rat, 10 mg/kg p.o.) [ng/g]","concentration at 3 h ([1]; Plasma Rat, 30 mg/kg p.o.) [ng/g]","efflux ratio at 60 min, 0.5 μM (P-gp (MDR1))",Kp at 3 h ([1]; 3 mg/kg p.o.),"concentration at 3 h ([1]; Brain Rat, 3 mg/kg p.o.) [ng/g]","concentration at 3 h ([1]; Plasma Rat, 3 mg/kg p.o.) [ng/g]"
"COc1ccc(C(=O)Nc2ccc(F)c([C@@]3(C)N=C(N)[C@@](C)(F)C[C@@H]3F)c2)nc1 [Compound 3, N-(3-((2R,3S,5S)-6-amino-3,5-difluoro-2,5-dimethyl-2,3,4,5-tetrahydropyridin-2-yl)-4-fluorophenyl)-5-methoxypicolinamide]",23,1.4,0.83,671,1510,489,1830,0.96,,,
"[2H]C([2H])([2H])Oc1ccc(C(=O)Nc2ccc(F)c([C@@]3(C)N=C(N)[C@@](C)(F)C[C@@H]3F)c2)nc1 [Compound 19, N-(3-((2R,3S,5S)-6-amino-3,5-difluoro-2,5-dimethyl-2,3,4,5-tetrahydropyridin-2-yl)-4-fluorophenyl)-5-(methoxy-d3)picolinamide]",20,2.2,2.3,1020,2770,473,1200,0.79,,,
"[2H]C([2H])([2H])Oc1cnc(C(=O)Nc2ccc(F)c([C@@]3(C)N=C(N)[C@@](C)(F)C[C@@H]3F)c2)cn1 [Compound 20, N-(3-((2R,3S,5S)-6-amino-3,5-difluoro-2,5-dimethyl-2,3,4,5-tetrahydropyridin-2-yl)-4-fluorophenyl)-5-(methoxy-d3)pyrazine-2-carboxamide]",21,,,,,,,0.85,2.2,610,272
